Tests used:
[1] = Hygroscopicity study by dynamic vapor sorption (DVS); assay type: physicochemical; conditions: 25° C. and 80% RH
Method: Test conditions: a sample (10-15 mg) is placed in DVS sample tray for testing.
Balance: dm/dt=0.01%/min (shortest: 10 min, longest: 180 min)
Drying: drying for 120 min at 0% RH
RH (%) test gradient: 10%
RH (%) test gradient range: 0%-90%-0%
The hygroscopicity property is evaluated and classified as follows: […]

[2] = Solid stability test; assay type: physicochemical
Method: […] The samples placed at the conditions of high temperature (60° C.) and high humidity (92.5% humidity, room temperature) were taken to test XRPD and purity on the 5th day and 10 days. Samples placed at high temperature and high humidity (40° C./75% humidity, 60° C./75% humidity) were taken to test XRPD and purity on the 10th day, 1 month, 2 months, and 3 months. The samples placed under light irradiation conditions were taken for testing when a total illuminance reached 1.2×10^6 Lux·hr. The test results are compared with the beginning test results of 0 day.

[3] = 40° C., relative humidity 75%, open, 1M
[4] = 40° C., relative humidity 75%, open, 2M
[5] = 40° C., relative humidity 75%, open, 3M
[6] = 40° C., relative humidity 75%, open, 10 days
[7] = 60° C., relative humidity 75%, open, 1M
[8] = 60° C., relative humidity 75%, open, 2M
[9] = 60° C., relative humidity 75%, open, 3M
[10] = 60° C., relative humidity 75%, open, 10 days
[11] = High humidity (room temperature/relative humidity 92.5%, open), 5 days
[12] = High humidity (room temperature/relative humidity 92.5%, open), 10 days
[13] = High temperature (60° C., open), 5 days
[14] = High temperature (60° C., open), 10 days
[15] = Light irradiation (total illuminance of 1.2 × 10^6 Lux·hr/near ultraviolet 200 w·hr/m^2, open)

## COc1ccc2c(c1OCc1ccccc1)C[C@@H](C(=O)O)N(C(=O)[C@@H](OC1CCCC1)c1ccccc1)C2 [crystalline form “B”]
[1]
  Classification of hygroscopicity: almost no hygroscopicity
  ΔW, weight gain caused by hygroscopicity: 0.05327%
[2]; 0 day
  Crystalline form (XRPD): Crystalline form “B”
  Purity: 99.89%
[2]; [3]
  Crystalline form (XRPD): Crystalline form “B”
  Purity: 99.92%
[2]; [4]
  Crystalline form (XRPD): Crystalline form “B”
  Purity: 99.87%
[2]; [5]
  Crystalline form (XRPD): Crystalline form “B”
  Purity: 99.87%
[2]; [6]
  Crystalline form (XRPD): Crystalline form “B”
  Purity: 99.93%
[2]; [7]
  Crystalline form (XRPD): Crystalline form “B”
  Purity: 99.90%
[2]; [8]
  Crystalline form (XRPD): Crystalline form “B”
  Purity: 99.78%
[2]; [9]
  Crystalline form (XRPD): Crystalline form “B”
  Purity: 99.80%
[2]; [10]
  Crystalline form (XRPD): Crystalline form “B”
  Purity: 99.92%
[2]; [11]
  Crystalline form (XRPD): Crystalline form “B”
  Purity: 99.93%
[2]; [12]
  Crystalline form (XRPD): Crystalline form “B”
  Purity: 99.92%
[2]; [13]
  Crystalline form (XRPD): Crystalline form “B”
  Purity: 99.93%
[2]; [14]
  Crystalline form (XRPD): Crystalline form “B”
  Purity: 99.93%
[2]; [15]
  Crystalline form (XRPD): Crystalline form “B”
  Purity: 99.96%
[2]; high temperature, high humidity, strong light and accelerated conditions
  Solid stability conclusion: good crystal stability and good chemical stability

From patent US11286239B2, “Angiotensin II receptor 2 antagonist salt form and crystalline form, and preparation method therefor” (SHANDONG DANHONG PHARMACEUTICAL CO., LTD., priority 2018, dated 2022)
